Laboratory results: patent publication US9783586B2, “Inhibitors of the linear ubiquitin chain assembly complex (LUBAC) and related methods” (The United States of America, as represented by the …, priority 2013, dated 2017)
Positions of bridges follow the written chain, without caps; N, C: chain ends. Non-standard residues stand in square brackets, D forms with d. S5 = C=CCCC[C@](C)(N)C(=O)O; βAla = NCCC(=O)O

Key:
Type in all cases: cell-based
ABC DLBCL cell lines = experiment: MTS cell viability assay, ABC DLBCL; conditions: ABC DLBCL cell lines, 5 μM or 20 μM, four days (FIGS. 7A-7D)
Method: (§1) ABC and GCB DLBCL cell lines were treated with RNF31 stapled peptides of Table 2 at concentrations of 5 μM or 20 μM for four days. Cell viability was determined using the following MTS assay. Cells were plated in triplicate at a density of 15,000 cells per well in 96-well plates. Cell viability after indicated treatments was assayed by adding 3-(4,5-dimethylthiazol-2-yl)-5-(3-carboxymethoxyphenyl)-2-(4-sulphophenyl)-2H tetrazolium and an electron coupling reagent (phenazine methosulphate from Promega, Madison, Wis.), incubated for 3 hours and measured by the amount of 490 nm absorbance using a 96-well plate reader. The background was subtracted using a media only control. The results of these MTS assays done in triplicate are shown in FIGS. 7A-7D (error bars indicate the SEM), and cell viability is expressed as the fraction of cells remaining after four days treatment, relative to the initial number of cells at the start of treatment (time 0). The results of MTS cell viability assay indicate that amino-terminal cross-linked peptides RNF31-N (SEQ ID NO: 11) and RNF31-NC (SEQ ID NO: 12) were toxic to ABC DLBCL cell lines but had little effect on GCB DLBCL cell lines tested.

NF-κB = NF-κB luciferase reporter assay; conditions: HBL1 ABC DLBCL cells, 5 μM or 20 μM, 2 days, relative to DMSO (FIG. 4)
Method: A third experiment was done using a different reporter system for NF-κB activity. HBL1 and TMD8 ABC DLBCL lines cell lines were created with an NF-κB transcriptional reporter by transduction with lentiviral particles containing an inducible NF-κB-responsive luciferase reporter construct (SA Biosciences, Valencia, Calif.) and selected with puromycin. Luciferase activity was measured using the DUAL-LUCIFERASE™ Reporter Assay System (Promega) on a Microtiter Plate Luminometer (Dyn-Ex Technologies, Chantilly, Va.). The transduced HBL and TMD8 cell lines were then transfected with constructs that inducibly express control (SC4) or RNF31 shRNAs described above. Expression of shRNAs was induced using doxycyline, and the luciferase reporter activity in shRNF31 expression cells was measured and normalized relative to control (SC4). Cells were also treated with the specific IKKβ inhibitor (MLN120B) as a positive control. Experiments were done in triplicate, and results are shown in FIG. 2C (error bars indicate SEM).
The ability of these peptides to inhibit NF-κB activity in ABC DLBCL was determined using the NF-κB luciferase reporter assay described above. Negative control cells were treated with dimethyl sulfoxide (DMSO), and positive control cells were treated with Bruton's tyrosine kinase (Btk) inhibitor ibrutinib. […] Cells were treated with peptides at concentrations of 5 μM or 20 μM for 2 days. Relative NF-κB-luciferase reporter activity was normalized and measured relative to control (DMSO-treated) cells. The results of triplicate experiments are shown in FIG. 4 (error bars indicate the SEM).

GCB DLBCL cell lines = experiment: MTS cell viability assay, GCB DLBCL; conditions: 5 μM or 20 μM, four days (FIGS. 7A-7D)
Method: as §1

RBCK1/RNF31 interaction = target: T1, RBCK1/RNF31 interaction (Homo sapiens, UniProt Q9BYM8); experiment: RBCK1/RNF31 co-immunoprecipitation (LUBAC complex formation) in co-transfected HEK-293 cells; conditions: HEK-293 cells, 5 μM or 20 μM, 24 hours, relative to DMSO (FIGS. 5, 6)
T1 construct: expressed in transfected cells; host or cells: HEK-293
T1 sequence (Q9BYM8 1-510): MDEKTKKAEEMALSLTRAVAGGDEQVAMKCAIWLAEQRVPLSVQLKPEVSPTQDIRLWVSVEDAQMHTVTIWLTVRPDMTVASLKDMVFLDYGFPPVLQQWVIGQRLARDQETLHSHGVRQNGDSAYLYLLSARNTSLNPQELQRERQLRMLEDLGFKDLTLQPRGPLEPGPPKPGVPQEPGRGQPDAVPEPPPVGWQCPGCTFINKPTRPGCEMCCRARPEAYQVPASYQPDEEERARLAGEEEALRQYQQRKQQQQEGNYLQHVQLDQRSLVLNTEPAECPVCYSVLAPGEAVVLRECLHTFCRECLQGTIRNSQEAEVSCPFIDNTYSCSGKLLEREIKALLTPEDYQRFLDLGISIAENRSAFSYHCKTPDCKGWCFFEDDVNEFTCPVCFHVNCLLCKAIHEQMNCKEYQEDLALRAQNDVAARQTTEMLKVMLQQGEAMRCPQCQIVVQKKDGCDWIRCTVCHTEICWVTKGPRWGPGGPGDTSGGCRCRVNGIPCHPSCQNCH

Ac-βAla Ser Arg Xaa Leu Thr Glu Xaa Gln Arg Gln Arg Leu Glu Pro Phe Arg Gln Arg Leu Trp Asp Ser-NH2 (Ac-[βAla]SR[S5]LTE[S5]QRQRLEPFRQRLWDS-NH2; staple 4-8; SMILES CC(=O)NCCC(=O)N[C@@H](CO)C(=O)N[C@@H](CCCNC(=N)N)C(=O)N[C@@]1(C)CCCC=CCCC[C@@](C)(C(=O)N[C@@H](CCC(N)=O)C(=O)N[C@@H](CCCNC(=N)N)C(=O)N[C@@H](CCC(N)=O)C(=O)N[C@@H](CCCNC(=N)N)C(=O)N[C@@H](CC(C)C)C(=O)N[C@@H](CCC(=O)O)C(=O)N2CCC[C@H]2C(=O)N[C@@H](Cc2ccccc2)C(=O)N[C@@H](CCCNC(=N)N)C(=O)N[C@@H](CCC(N)=O)C(=O)N[C@@H](CCCNC(=N)N)C(=O)N[C@@H](CC(C)C)C(=O)N[C@@H](Cc2c[nH]c3ccccc23)C(=O)N[C@@H](CC(=O)O)C(=O)N[C@@H](CO)C(N)=O)NC(=O)[C@H](CCC(=O)O)NC(=O)[C@H]([C@@H](C)O)NC(=O)[C@H](CC(C)C)NC1=O) [RNF31-N]
Cell viability (MTS) (ABC DLBCL cell lines): toxic | Relative NF-κB-luciferase reporter activity (NF-κB): strongly inhibit NF-κB | Cell viability (MTS) (GCB DLBCL cell lines): little effect | RBCK1/RNF31 interaction (anti-HA immunoprecipitation, densitometry) (RBCK1/RNF31 interaction): inhibited RBCK1/RNF31 interaction in a dose-dependent fashion
